{"source": "patent US20090209620A1", "about": "“Direct Reversal Of The Suppressive Function Of CD4+Regulatory T Cells Via Toll-Like Receptor 8 Signaling” (priority 2005, published 2009)", "key": {"Treg102 cells": {"tested_on": "Treg102 cells", "assay": "Reversibility of siRNA-transduced Treg102 cells by Poly-G10 (functional proliferation assay)", "assay_type": "cell-based, human", "excerpt": "Several siRNA sequences (19 nucleotides) for each gene were selected with use of computer-assisted programs. Oligonucleotides containing a siRNA sequence, 8 nucleotide spacers, and a polyT terminator sequence were annealed and then cloned into the HapI and XhoI sites of GFP-expressing pLentilox3.7 vector using methods well known in the art (See, e.g., D. A. Rubinson et al., Nat. Genet. 33, 401-6 (2003)). siRNA was under the control of a U6 promoter. The following DNA sequences used to construct siRNAs for IRAK4, MyD88, and TLR7, 8 and 9, were effective in silencing their corresponding genes:\n5×10^6 293T cells were pre-seeded onto 100-mm dishes and transfected with 12 μg siRNA lentiviral DNA, 12 μg VSV-G plasmid DNA and 12 μg packaging viral CMV delta 8.9 plasmid, using Lipofectamine 2000. After the addition of fresh culture medium 8 h later, the cells were cultured for an additional 2-3 days. Viral supernatants were harvested, passed through a […] filter and concentrated by ultracentrifugation at 20,000 rpm for 2 h. Virus pellets were resuspended in a small volume of medium, and viral titers were determined by infecting 293T cells with serially diluted doses of virus. For transduction of T cells, T cells (2×106 ) were first activated by OKT3 (2 ug/ml)-coated plates and then were mixed with the concentrated lentiviral supernatant with a multiplicity of infection (MOI) of 10-15 in a total volume of 0.5 ml T cell medium containing 8 ug/ml polybrene (Sigma), and then span at 1000×g for 1 h at room temperature. After 16 h of incubation, 0.5 ml of T cell medium was added to each well. Forty-eight hours later, the T cells were transduced again with the same concentrated viral supernatants. Transduction efficiency was analyzed at 3 or 4 days post-transduction, and the cells were sorted into GFP^+and GFP^−cells with a FACS ARIA sorter. The sorted cells (GFP^+and GFP^−) and untransduced Treg cells were then used to determine their reversibility by Poly-G10 in functional proliferation assays.\nThe current model of TLR signaling pathways predicts that TLR1, 2, 5, 6, 7, 8, and 9 use MyD88 as their sole receptor-proximal adaptor to transduce signals, TLR3 uses interferon-regulated factor 3 (IRF3) for the production of IFN-α in response to pathogen recognition, while TLR4 is linked to both MyD88-dependent and MyD88 independent pathways. Since MyD88 is important for the signaling activities of most TLRs, it stood to reason that its dependent pathway, in which IRKA4 transduces signals from MyD88 to TRAF6 and other downstream molecules, would likely be involved in TLR signaling initiated by guanosine-containing oligonucleotides. Four or five eGFP-expressing lentiviral constructs containing U6-driven siRNAs were made for each gene and were tested their abilities to specifically knock down their respective target proteins. In FIG. 3A, the efficiency of knock down by siRNA was determined by Western blot analysis. Both IRAK4 and MyD88 were tagged with a FLAG epitope, and detected by anti-FLAG antibody (M2). 293T cells transfected with either FLAG-IRAK4 or FLAG-MyD88 served as positive controls, while nontranseffected 293T cells were negative controls. The amount of β-actin in each lane served as loading controls for the samples. […] Treg102 cells were next transduced with an IRAK4 siRNAl lentivirus. After 3 days in culture, they were sorted by FACS into transduced (GFP^+) and untransduced (GFP^− control) Treg cell populations (FIG. 3B). The purity of GFP^+ and GFP^− cells was confirmed by FACS analysis. […] This notion was further supported by experiments in which Treg102 cells were transduced with MyD88 siRNAs. […] For FIG. 3C, uninfected parental Treg108 cells and Poly-T10 oligonucleotides served as controls. Data are presented as means±SD and represent results from three independent experiments. Similar results were obtained with Treg164 cell lines. […]"}, "586mel human tumor cells": {"tested_on": "586mel human tumor cells", "assay": "Human 586mel tumor model in Rag1-/- mice with adoptive transfer of TIL586 and Treg102 cells", "assay_type": "in vivo", "conditions": "586mel s.c. day 0; CD8+ TIL586 plus Treg102 cells with oligonucleotide on day 3; n=6 mice per group", "description": "Human 586mel tumor cells (5×106) in 100 μl of buffered saline were subcutaneously injected into Rag1^−/− mice (lacking T and B cells) or Rag 2 ^−/− γC ^−/− mice (lacking T, B and NK cells) on day 0. Tumor-specific CD8^+ TIL586 cells (2.5×107), which recognize and kill 586mel cells, were injected intravenously on day 3 with or without Treg102 cells (3×106) pretreated with Poly-G10 or Poly-T10. Tumor size was measured with calipers every 2-3 days. Tumor volume was calculated on the basis of two-dimensioned measurements. Tumor growth curves were compared with the Wilcoxon rank-sum test.\nThe data in FIG. 4A-B confirms that TLR8 serves as a receptor for synthetic guanosine containing oligonucleotides and natural ssRNA40 and ssRNA33 ligands derived from HIV-1 virus, and that its activation in endosomes by synthetic DNA or ssRNA ligands triggers a signaling pathway that can reverse the suppressive function of Treg cells. To study the guanosine containing oligonucleotide induced reversal of Treg cell function in vivo, a human tumor model was established by subcutaneously injecting 586mel human tumor cells into Rag1^−/− (T and B cell deficient) mice. […] Tumor volumes were measured and presented as mean±SD (n=6 mice per group). P value was determined between groups as indicated. […]"}}, "note": "“Also recorded” adds a separate entry of the source. In the oligonucleotide strings, read from the 5' end, every base follows the letter of its sugar. An asterisk marks phosphorothioate; unmarked linkages are phosphodiester. Other units and linkages are bracketed, terminal groups are in braces. A string of capitals states the bases alone. d = 2'-deoxy (DNA)"}
{"substance": "Poly-G10: guanosine oligonucleotide with protected phosphorothioate backbone (DNA dG*dG*dG*dG*dG*dG*dG*dG*dG*dG)", "values": [{"measurement": "reversibility of suppression by Poly-G10", "setting": "Treg102 cells; IRAK4 siRNA-transduced (GFP+) Treg102 cells", "value": "could not be reversed"}, {"measurement": "reversibility of suppression by Poly-G10", "setting": "Treg102 cells; MyD88 siRNA-transduced (GFP+) Treg102 cells", "value": "completely lost their ability to respond"}, {"measurement": "reversibility of suppression by Poly-G10", "setting": "Treg102 cells; TLR7 siRNA or TLR9 siRNA-transduced (GFP+) Treg cells", "value": "retained the same reversible suppressive function"}, {"measurement": "reversibility of suppression by Poly-G10", "setting": "Treg102 cells; TLR8 siRNA-transduced (GFP+) Treg102 cells", "value": "could not be reversed"}, {"measurement": "reversibility of suppression by Poly-G10", "setting": "Treg102 cells; Treg cells transduced with control siRNA virus", "value": "Neither the suppressive activity nor the reversibility of the suppression was affected"}, {"measurement": "reversibility of suppression by Poly-G10", "setting": "Treg102 cells; untransduced (GFP-) Treg102 cells", "value": "reversed as readily as the parental Treg102 cells"}, {"measurement": "tumor growth / antitumor immunity", "setting": "586mel human tumor cells", "value": "enhances antitumor immunity in vivo; also recorded: tumor growth was not detected during the first 42 days"}]}
